{
  "source": "ChEMBL document CHEMBL1208702",
  "about": "“Use of 2-[(18)F]fluoroethylazide for the Staudinger ligation - Preparation and characterisation of GABA(A) receptor binding 4-quinolones” (Bioorg Med Chem Lett, 2010)",
  "test": "Displacement of [3H]Ro151788 from GABA-A receptor in Wistar rat cerebellar membrane after 1 hr by liquid scintillation counting",
  "type": "cell membranes, Cerebellum",
  "data": [
    {"smiles": "O=C(NCCCF)c1c[nH]c2ccc(Br)cc2c1=O", "values": [
      {"measurement": "Ki", "result": 1.3, "unit": "nM"}
    ]}
  ]
}
